Reference: PubChem BioAssay (NCI)
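Results reflect a 48-hour exposure of cells in 96-well plates to compound at five concentrations. TGI is the concentration that stops growth completely.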

What was measured:
Assay in all cases: DTP human tumour cell line panel, 48 h
[1] = tested on: 786-0 renal
[2] = tested on: A498 renal
[3] = tested on: A549 NSCLC
[4] = tested on: ACHN renal
[5] = tested on: CAKI-1 renal
[6] = tested on: CCRF-CEM leukemia
[7] = tested on: COLO 205 colon
[8] = tested on: DLD-1 colon
[9] = tested on: DMS 114 small cell lung
[10] = tested on: DMS 273 small cell lung
[11] = tested on: EKVX NSCLC
[12] = tested on: HCC-2998 colon
[13] = tested on: HCT-116 colon
[14] = tested on: HCT-15 colon
[15] = tested on: HL-60(TB) leukemia
[16] = tested on: HOP-18 NSCLC
[17] = tested on: HOP-62 NSCLC
[18] = tested on: HOP-92 NSCLC
[19] = tested on: HT29 colon
[20] = tested on: IGROV1 ovarian
[21] = tested on: K-562 leukemia
[22] = tested on: KM12 colon
[23] = tested on: KM20L2 colon
[24] = tested on: LOX IMVI melanoma
[25] = tested on: LXFL 529 NSCLC
[26] = tested on: M14 melanoma
[27] = tested on: M19-MEL melanoma
[28] = tested on: MALME-3M melanoma
[29] = tested on: MOLT-4 leukemia
[30] = tested on: NCI-H226 lung
[31] = tested on: NCI-H23 lung
[32] = tested on: NCI-H460 lung
[33] = tested on: OVCAR-3 ovarian
[34] = tested on: OVCAR-4 ovarian
[35] = tested on: OVCAR-5 ovarian
[36] = tested on: OVCAR-8 ovarian
[37] = tested on: RPMI-8226 leukemia
[38] = tested on: RXF 393 renal
[39] = tested on: SF-268 CNS
[40] = tested on: SF-295 CNS
[41] = tested on: SF-539 CNS
[42] = tested on: SK-MEL-2 melanoma
[43] = tested on: SK-MEL-28 melanoma
[44] = tested on: SK-MEL-5 melanoma
[45] = tested on: SK-OV-3 ovarian
[46] = tested on: SN12C renal
[47] = tested on: SNB-19 CNS
[48] = tested on: SNB-75 CNS
[49] = tested on: SNB-78 CNS
[50] = tested on: SR leukemia
[51] = tested on: SW-620 colon
[52] = tested on: TK-10 renal
[53] = tested on: U251 CNS
[54] = tested on: UACC-257 melanoma
[55] = tested on: UACC-62 melanoma
[56] = tested on: UO-31 renal
[57] = tested on: NCI-H522 lung
[58] = tested on: XF 498 CNS

SMILES: CCOc1ccccc1NC(=O)C(=O)CC(=O)c1sc(Nc2nnc(-c3ccc(Cl)c(Cl)c3)o2)nc1C
- TGI [1]: > 100 µM
- TGI [2]: > 100 µM
- TGI [3]: > 100 µM
- TGI [4]: > 100 µM
- TGI [5]: > 100 µM
- TGI [6]: > 100 µM
- TGI [7]: > 100 µM
- TGI [8]: > 100 µM
- TGI [9]: > 100 µM
- TGI [10]: > 100 µM
- TGI [11]: > 100 µM
- TGI [12]: > 100 µM
- TGI [13]: > 100 µM
- TGI [14]: > 100 µM
- TGI [15]: > 100 µM
- TGI [16]: > 100 µM
- TGI [17]: > 100 µM
- TGI [18]: > 100 µM
- TGI [19]: > 100 µM
- TGI [20]: > 100 µM
- TGI [21]: > 100 µM
- TGI [22]: > 100 µM
- TGI [23]: > 100 µM
- TGI [24]: > 100 µM
- TGI [25]: > 100 µM
- TGI [26]: > 100 µM
- TGI [27]: > 100 µM
- TGI [28]: > 100 µM
- TGI [29]: > 100 µM
- TGI [30]: > 100 µM
- TGI [31]: > 100 µM
- TGI [32]: > 100 µM
- TGI [33]: > 100 µM
- TGI [34]: > 100 µM
- TGI [35]: > 100 µM
- TGI [36]: > 100 µM
- TGI [37]: > 100 µM
- TGI [38]: > 100 µM
- TGI [39]: > 100 µM
- TGI [40]: > 100 µM
- TGI [41]: > 100 µM
- TGI [42]: > 100 µM
- TGI [43]: > 100 µM
- TGI [44]: > 100 µM
- TGI [45]: > 100 µM
- TGI [46]: > 100 µM
- TGI [47]: > 100 µM
- TGI [48]: > 100 µM
- TGI [49]: > 100 µM
- TGI [50]: > 100 µM
- TGI [51]: > 100 µM
- TGI [52]: > 100 µM
- TGI [53]: 41.4 µM
- TGI [54]: > 100 µM
- TGI [55]: > 100 µM
- TGI [56]: > 100 µM

SMILES: CN(C)CCC(=O)c1ccccc1
- TGI [1]: 44.2 µM
- TGI [2]: > 95.5 µM
- TGI [3]: > 82.1 µM
- TGI [4]: > 69.2 µM
- TGI [5]: 40.5 µM
- TGI [6]: 62.4 µM
- TGI [7]: > 57.2 µM
- TGI [8]: 41 µM
- TGI [9]: > 56.2 µM
- TGI [10]: > 100 µM
- TGI [11]: > 68.8 µM
- TGI [12]: > 69.6 µM
- TGI [13]: 55.4 µM
- TGI [14]: 46.9 µM
- TGI [15]: > 64.2 µM
- TGI [16]: > 68.9 µM
- TGI [17]: > 100 µM
- TGI [18]: 44.6 µM
- TGI [19]: > 67.3 µM
- TGI [20]: > 71 µM
- TGI [21]: 85.4 µM
- TGI [22]: > 61.4 µM
- TGI [23]: > 59.1 µM
- TGI [24]: 57.8 µM
- TGI [25]: 44.7 µM
- TGI [26]: 52.6 µM
- TGI [27]: 52.7 µM
- TGI [28]: 24.1 µM
- TGI [29]: 59.9 µM
- TGI [30]: 98.4 µM
- TGI [31]: > 74 µM
- TGI [32]: > 73.5 µM
- TGI [57]: 1.06 µM
- TGI [33]: > 73.4 µM
- TGI [34]: > 74.1 µM
- TGI [35]: > 57.6 µM
- TGI [36]: > 71.9 µM
- TGI [37]: > 100 µM
- TGI [38]: 61.6 µM
- TGI [39]: > 74.7 µM
- TGI [40]: > 100 µM
- TGI [41]: > 70.3 µM
- TGI [42]: > 84.4 µM
- TGI [43]: > 67.4 µM
- TGI [44]: > 56.9 µM
- TGI [45]: > 68.8 µM
- TGI [46]: > 70.1 µM
- TGI [47]: > 100 µM
- TGI [48]: > 71 µM
- TGI [49]: 69 µM
- TGI [50]: 57.4 µM
- TGI [51]: 32.4 µM
- TGI [52]: > 68.4 µM
- TGI [53]: > 69.4 µM
- TGI [54]: > 59 µM
- TGI [55]: > 68.1 µM
- TGI [56]: > 68.8 µM
- TGI [58]: 38.5 µM
